Source: ChEMBL document CHEMBL2074249, “Fruit juices inhibit organic anion transporting polypeptide-mediated drug uptake to decrease the oral availability of fexofenadine” (Clin Pharmacol Ther, 2002)
Each block holds one compound with its values, some of them ahead of it.

How the values were obtained:
Format in all cases: functional, cell-based
[1] = molecular target: ATP-dependent translocase ABCB1 (Homo sapiens, UniProt P08183); test: TP_TRANSPORTER: inhibition of Vinblastine transepithelial transport (basal to apical) (Vinblastine: 5 uM, Grapefruit juice: 5 %) in MDR1-expressing LLC-PK1 cells; details: pig
[2] = molecular target: T1, Solute carrier organic anion transporter family member 1A1 (Rattus norvegicus, UniProt P46720); test: TP_TRANSPORTER: inhibition of Fexofenadine uptake (Fexofenadine: 1 uM, Grapefruit juice: 5 %) in Oatp1-expressing HeLa cells; details: human
T1 sequence (P46720 whole entry): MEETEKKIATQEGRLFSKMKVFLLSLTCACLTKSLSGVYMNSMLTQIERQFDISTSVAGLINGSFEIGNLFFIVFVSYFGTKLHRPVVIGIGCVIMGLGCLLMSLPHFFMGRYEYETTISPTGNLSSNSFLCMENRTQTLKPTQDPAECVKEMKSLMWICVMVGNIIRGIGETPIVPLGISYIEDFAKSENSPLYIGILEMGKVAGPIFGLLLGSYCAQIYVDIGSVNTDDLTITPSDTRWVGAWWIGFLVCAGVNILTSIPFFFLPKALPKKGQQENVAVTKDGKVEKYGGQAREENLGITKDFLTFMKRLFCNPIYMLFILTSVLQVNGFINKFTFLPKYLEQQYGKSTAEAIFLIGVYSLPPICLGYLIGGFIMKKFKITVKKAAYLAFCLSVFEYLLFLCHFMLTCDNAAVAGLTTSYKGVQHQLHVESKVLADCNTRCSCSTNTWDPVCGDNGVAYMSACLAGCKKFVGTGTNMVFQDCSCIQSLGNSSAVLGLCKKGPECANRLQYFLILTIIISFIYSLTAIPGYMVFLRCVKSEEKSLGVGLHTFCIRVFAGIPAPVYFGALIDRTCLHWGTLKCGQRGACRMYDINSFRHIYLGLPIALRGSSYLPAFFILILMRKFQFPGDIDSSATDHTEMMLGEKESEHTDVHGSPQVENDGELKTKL

[3] = molecular target: T2, Solute carrier organic anion transporter family member 1A2 (Homo sapiens, UniProt P46721); test: TP_TRANSPORTER: inhibition of Fexofenadine uptake (Fexofenadine: 1 uM, Grapefruit juice: 5 %) in OATP-A-expressing HeLa cells
T2 sequence (P46721 whole entry): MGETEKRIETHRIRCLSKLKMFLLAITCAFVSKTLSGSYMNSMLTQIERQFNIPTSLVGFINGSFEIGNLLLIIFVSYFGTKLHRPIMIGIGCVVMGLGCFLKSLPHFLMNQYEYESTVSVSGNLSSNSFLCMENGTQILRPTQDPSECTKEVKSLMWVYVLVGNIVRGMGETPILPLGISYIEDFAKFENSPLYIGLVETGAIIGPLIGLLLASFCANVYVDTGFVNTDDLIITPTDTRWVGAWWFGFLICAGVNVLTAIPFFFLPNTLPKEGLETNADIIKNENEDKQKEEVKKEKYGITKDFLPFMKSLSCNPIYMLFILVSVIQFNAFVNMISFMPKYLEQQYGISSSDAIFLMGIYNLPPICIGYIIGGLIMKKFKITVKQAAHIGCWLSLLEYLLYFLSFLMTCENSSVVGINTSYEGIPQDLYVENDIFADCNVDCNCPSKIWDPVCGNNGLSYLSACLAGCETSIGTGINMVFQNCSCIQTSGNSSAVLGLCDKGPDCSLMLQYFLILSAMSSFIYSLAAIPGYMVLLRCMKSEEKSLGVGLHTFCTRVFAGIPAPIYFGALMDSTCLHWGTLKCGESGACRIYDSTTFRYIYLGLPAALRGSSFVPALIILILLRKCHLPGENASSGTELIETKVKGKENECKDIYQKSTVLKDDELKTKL

[4] = molecular target: T3, Solute carrier organic anion transporter family member 1A4 (Rattus norvegicus, UniProt O35913); test: TP_TRANSPORTER: inhibition of Fexofenadine uptake (Fexofenadine: 1 uM, Grapefruit juice: 5 %) in Oatp2-expressing HeLa cells; details: human
T3 sequence (O35913 whole entry): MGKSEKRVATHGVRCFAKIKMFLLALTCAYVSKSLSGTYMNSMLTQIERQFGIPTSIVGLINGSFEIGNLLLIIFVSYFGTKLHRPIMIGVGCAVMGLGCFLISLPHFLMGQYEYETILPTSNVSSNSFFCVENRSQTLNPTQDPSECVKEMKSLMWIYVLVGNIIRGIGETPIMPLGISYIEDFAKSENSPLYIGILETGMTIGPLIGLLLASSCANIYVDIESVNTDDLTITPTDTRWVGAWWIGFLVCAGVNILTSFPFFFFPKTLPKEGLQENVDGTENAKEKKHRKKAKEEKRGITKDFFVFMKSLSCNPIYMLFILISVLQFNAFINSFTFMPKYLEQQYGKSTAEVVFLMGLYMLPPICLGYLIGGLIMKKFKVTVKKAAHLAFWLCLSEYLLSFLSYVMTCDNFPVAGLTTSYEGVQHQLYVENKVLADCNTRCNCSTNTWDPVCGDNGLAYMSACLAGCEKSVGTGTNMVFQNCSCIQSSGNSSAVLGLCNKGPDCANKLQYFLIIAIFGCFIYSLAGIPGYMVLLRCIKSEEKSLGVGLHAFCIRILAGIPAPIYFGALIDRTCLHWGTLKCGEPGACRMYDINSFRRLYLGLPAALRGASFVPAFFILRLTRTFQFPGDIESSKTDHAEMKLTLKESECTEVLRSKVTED

[5] = molecular target: T4, Oatp3 (Solute carrier organic anion transporter family member 1A5) (Rattus norvegicus, UniProt O88397); test: TP_TRANSPORTER: inhibition of Fexofenadine uptake (Fexofenadine: 1? uM, 5-Methoxypsoralen: 50 uM) in Oatp3-expressing HeLa cells; set-up: scale not given: the % may be the effect or the level left; details: human, HeLa cells that express Oatp3, probe fexofenadine; read-out: Activity
T4 sequence (O88397 whole entry): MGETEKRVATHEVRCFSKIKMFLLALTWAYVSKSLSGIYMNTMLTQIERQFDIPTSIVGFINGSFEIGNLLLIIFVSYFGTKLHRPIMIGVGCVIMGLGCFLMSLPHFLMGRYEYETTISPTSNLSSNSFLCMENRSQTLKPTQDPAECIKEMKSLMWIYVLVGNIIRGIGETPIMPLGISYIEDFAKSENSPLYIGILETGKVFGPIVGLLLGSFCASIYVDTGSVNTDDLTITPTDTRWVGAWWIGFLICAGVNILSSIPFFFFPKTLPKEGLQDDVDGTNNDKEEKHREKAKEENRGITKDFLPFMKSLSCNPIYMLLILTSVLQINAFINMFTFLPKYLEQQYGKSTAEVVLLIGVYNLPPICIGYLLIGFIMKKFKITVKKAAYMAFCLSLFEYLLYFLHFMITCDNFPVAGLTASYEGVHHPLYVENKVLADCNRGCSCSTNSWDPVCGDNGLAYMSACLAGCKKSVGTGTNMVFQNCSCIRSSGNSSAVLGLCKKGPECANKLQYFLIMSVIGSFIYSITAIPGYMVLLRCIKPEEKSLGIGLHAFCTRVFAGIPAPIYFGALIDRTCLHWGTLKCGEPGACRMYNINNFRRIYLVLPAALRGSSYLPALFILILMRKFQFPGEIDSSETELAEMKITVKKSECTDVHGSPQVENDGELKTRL

[6] = molecular target: T4, Oatp3 (Solute carrier organic anion transporter family member 1A5); test: TP_TRANSPORTER: inhibition of Fexofenadine uptake (Fexofenadine: 1? uM, Hesperidin: 50 uM) in Oatp3-expressing HeLa cells; set-up: scale not given: the % may be the effect or the level left; details: human, HeLa cells that express Oatp3, probe fexofenadine; read-out: Activity
[7] = molecular target: T1, Solute carrier organic anion transporter family member 1A1; test: TP_TRANSPORTER: inhibition of Fexofenadine uptake (Fexofenadine: 1 uM, Orange juice: 5 %) in Oatp1-expressing HeLa cells; details: human
[8] = molecular target: T2, Solute carrier organic anion transporter family member 1A2; test: TP_TRANSPORTER: inhibition of Fexofenadine uptake (Fexofenadine: 1 uM, Orange juice: 5 %) in OATP-A-expressing HeLa cells
[9] = molecular target: T5, Solute carrier organic anion transporter family member 1A5 (Rattus norvegicus, UniProt O88397); test: TP_TRANSPORTER: inhibition of Fexofenadine uptake (Fexofenadine: 1 uM, Orange juice: 5 %) in Oatp3-expressing HeLa cells; details: human
T5 sequence (O88397 whole entry): T4 sequence (O88397 whole entry)

[10] = molecular target: T3, Solute carrier organic anion transporter family member 1A4; test: TP_TRANSPORTER: inhibition of Fexofenadine uptake (Fexofenadine: 1 uM, Orange juice: 5 %) in Oatp2-expressing HeLa cells; details: human
[11] = molecular target: T4, Oatp3 (Solute carrier organic anion transporter family member 1A5); test: TP_TRANSPORTER: inhibition of Fexofenadine uptake (Fexofenadine: 1? uM, Hesperitin: 5 uM) in Oatp3-expressing HeLa cells; set-up: scale not given: the % may be the effect or the level left; details: human, HeLa cells that express Oatp3, probe fexofenadine; read-out: Activity
[12] = molecular target: T4, Oatp3 (Solute carrier organic anion transporter family member 1A5); test: TP_TRANSPORTER: inhibition of Fexofenadine uptake (Fexofenadine: 1? uM, Naringenin: 50 uM) in Oatp3-expressing HeLa cells; set-up: scale not given: the % may be the effect or the level left; details: human, HeLa cells that express Oatp3, probe fexofenadine; read-out: Activity
[13] = molecular target: T4, Oatp3 (Solute carrier organic anion transporter family member 1A5); test: TP_TRANSPORTER: inhibition of Fexofenadine uptake (Fexofenadine: 1? uM, 6',7'-Dihydroxybergamottin: 50 uM) in Oatp3-expressing HeLa cells; set-up: scale not given: the % may be the effect or the level left; details: human, HeLa cells that express Oatp3, probe fexofenadine; read-out: Activity
[14] = molecular target: T4, Oatp3 (Solute carrier organic anion transporter family member 1A5); test: TP_TRANSPORTER: inhibition of Fexofenadine uptake (Fexofenadine: 1? uM, Naringin: 5 uM) in Oatp3-expressing HeLa cells; set-up: scale not given: the % may be the effect or the level left; details: human, HeLa cells that express Oatp3, probe fexofenadine; read-out: Activity
[15] = molecular target: T4, Oatp3 (Solute carrier organic anion transporter family member 1A5); test: TP_TRANSPORTER: inhibition of Fexofenadine uptake (Fexofenadine: 1? uM, Bergamottin: 50 uM) in Oatp3-expressing HeLa cells; set-up: scale not given: the % may be the effect or the level left; details: human, HeLa cells that express Oatp3, probe fexofenadine; read-out: Activity
[16] = molecular target: T4, Oatp3 (Solute carrier organic anion transporter family member 1A5); test: TP_TRANSPORTER: inhibition of Fexofenadine uptake (Fexofenadine: 1? uM, Quercetin: 5 uM) in Oatp3-expressing HeLa cells; set-up: scale not given: the % may be the effect or the level left; details: human, HeLa cells that express Oatp3, probe fexofenadine; read-out: Activity
[17] = molecular target: T1, Solute carrier organic anion transporter family member 1A1; test: TP_TRANSPORTER: inhibition of Fexofenadine uptake (Fexofenadine: 1 uM, Apple juice: 5 %) in Oatp1-expressing HeLa cells; details: human
[18] = molecular target: T5, Solute carrier organic anion transporter family member 1A5; test: TP_TRANSPORTER: inhibition of Fexofenadine uptake (Fexofenadine: 1 uM, Apple juice: 5 %) in Oatp3-expressing HeLa cells; details: human

Sequence of ATP-dependent translocase ABCB1 (P08183 whole entry): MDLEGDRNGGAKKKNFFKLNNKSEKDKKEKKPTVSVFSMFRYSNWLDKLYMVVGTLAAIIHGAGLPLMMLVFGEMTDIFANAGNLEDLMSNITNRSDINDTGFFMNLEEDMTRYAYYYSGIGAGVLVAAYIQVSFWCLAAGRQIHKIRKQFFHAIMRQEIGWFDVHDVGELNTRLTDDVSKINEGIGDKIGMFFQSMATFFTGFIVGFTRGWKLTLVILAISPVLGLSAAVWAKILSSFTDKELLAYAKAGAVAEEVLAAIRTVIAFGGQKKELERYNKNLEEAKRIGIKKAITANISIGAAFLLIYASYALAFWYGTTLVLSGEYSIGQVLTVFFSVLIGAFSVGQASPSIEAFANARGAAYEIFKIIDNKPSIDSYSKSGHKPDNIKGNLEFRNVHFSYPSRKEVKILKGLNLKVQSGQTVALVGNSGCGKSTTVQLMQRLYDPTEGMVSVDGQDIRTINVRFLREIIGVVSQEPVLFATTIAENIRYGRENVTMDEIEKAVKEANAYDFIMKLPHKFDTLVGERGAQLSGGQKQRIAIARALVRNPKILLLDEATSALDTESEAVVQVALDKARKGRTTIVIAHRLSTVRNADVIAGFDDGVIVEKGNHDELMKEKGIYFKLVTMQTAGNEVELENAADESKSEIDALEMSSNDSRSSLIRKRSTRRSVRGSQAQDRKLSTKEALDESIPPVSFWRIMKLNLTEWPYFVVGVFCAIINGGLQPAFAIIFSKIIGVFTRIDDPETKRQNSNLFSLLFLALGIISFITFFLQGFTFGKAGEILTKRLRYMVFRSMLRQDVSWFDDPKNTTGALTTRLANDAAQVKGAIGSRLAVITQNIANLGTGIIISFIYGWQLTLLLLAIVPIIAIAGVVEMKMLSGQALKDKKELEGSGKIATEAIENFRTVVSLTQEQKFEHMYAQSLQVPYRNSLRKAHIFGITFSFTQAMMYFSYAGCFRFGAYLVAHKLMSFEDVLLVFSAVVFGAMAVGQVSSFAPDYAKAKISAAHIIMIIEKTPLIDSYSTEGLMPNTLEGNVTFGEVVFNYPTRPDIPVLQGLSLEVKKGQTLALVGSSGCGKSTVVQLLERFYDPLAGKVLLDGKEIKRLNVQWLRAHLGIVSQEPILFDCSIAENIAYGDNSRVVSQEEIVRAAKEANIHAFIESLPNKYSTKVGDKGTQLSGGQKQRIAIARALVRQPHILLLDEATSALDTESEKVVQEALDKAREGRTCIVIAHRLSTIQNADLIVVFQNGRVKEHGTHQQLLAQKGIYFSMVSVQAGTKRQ

Activity [1]: is not an inhibitor [-]
Compound: GRAPEFRUIT JUICE
Activity [2]: inhibitor [(at a rough estimate) <0 % of control]
Activity [3]: inhibitor [(at a rough estimate) 10 % of control]
Activity [4]: inhibitor [(at a rough estimate) 20 % of control]

Compound: COc1c2ccoc2cc2oc(=O)ccc12 [BERGAPTEN]
activity at 50 µM [5]: 32%

activity at 50 µM [6]: 51%
Compound: COc1ccc([C@@H]2CC(=O)c3c(O)cc(O[C@@H]4O[C@H](CO[C@@H]5O[C@@H](C)[C@H](O)[C@@H](O)[C@H]5O)[C@@H](O)[C@H](O)[C@H]4O)cc3O2)cc1O [HESPERIDIN]

Compound: ORANGE JUICE
Activity [7]: inhibitor [(at a rough estimate) 25 % of control]
Activity [8]: inhibitor [(at a rough estimate) 10 % of control]
Activity [9]: inhibitor [(at a rough estimate) 10 % of control]
Activity [10]: inhibitor [(at a rough estimate) <5 % of control]

activity at 5 µM [11]: 40%
Compound: COc1ccc([C@@H]2CC(=O)c3c(O)cc(O)cc3O2)cc1O [HESPERETIN]

Compound: O=C1C[C@@H](c2ccc(O)cc2)Oc2cc(O)cc(O)c21 [NARINGENIN]
activity at 50 µM [12]: 10%

activity at 50 µM [13]: 22%
Compound: C/C(=C\COc1c2ccoc2cc2oc(=O)ccc12)CC[C@@H](O)C(C)(C)O

activity at 5 µM [14]: 36%
Compound: C[C@@H]1O[C@@H](O[C@H]2[C@H](Oc3cc(O)c4c(c3)O[C@H](c3ccc(O)cc3)CC4=O)O[C@H](CO)[C@@H](O)[C@@H]2O)[C@H](O)[C@H](O)[C@H]1O [NARINGIN]

activity at 50 µM [15]: 22%
Compound: CC(C)=CCC/C(C)=C/COc1c2ccoc2cc2oc(=O)ccc12 [BERGAMOTTIN]

Compound: O=c1c(O)c(-c2ccc(O)c(O)c2)oc2cc(O)cc(O)c12 [QUERCETIN]
activity at 5 µM [16]: 52%

Compound: APPLE JUICE
Activity [17]: inhibitor [(at a rough estimate) 5 % of control]
Activity [18]: inhibitor [(at a rough estimate) 5 % of control]
